Consider 18 molecules from patent US12162888B2, “Carboxamides as ubiquitin-specific protease inhibitors” (Valo Early Discovery, Inc., priority 2018, dated 2024).

SMILES strings stand for the structures.

The first assay concerns the target T1, USP25 (USP25-His6, Boston Biochem E-546) (Homo sapiens, UniProt Q9UHP3).
T1 construct: His6 (C); purchased Boston Biochem E-546
T1 sequence (Q9UHP3 1-1055): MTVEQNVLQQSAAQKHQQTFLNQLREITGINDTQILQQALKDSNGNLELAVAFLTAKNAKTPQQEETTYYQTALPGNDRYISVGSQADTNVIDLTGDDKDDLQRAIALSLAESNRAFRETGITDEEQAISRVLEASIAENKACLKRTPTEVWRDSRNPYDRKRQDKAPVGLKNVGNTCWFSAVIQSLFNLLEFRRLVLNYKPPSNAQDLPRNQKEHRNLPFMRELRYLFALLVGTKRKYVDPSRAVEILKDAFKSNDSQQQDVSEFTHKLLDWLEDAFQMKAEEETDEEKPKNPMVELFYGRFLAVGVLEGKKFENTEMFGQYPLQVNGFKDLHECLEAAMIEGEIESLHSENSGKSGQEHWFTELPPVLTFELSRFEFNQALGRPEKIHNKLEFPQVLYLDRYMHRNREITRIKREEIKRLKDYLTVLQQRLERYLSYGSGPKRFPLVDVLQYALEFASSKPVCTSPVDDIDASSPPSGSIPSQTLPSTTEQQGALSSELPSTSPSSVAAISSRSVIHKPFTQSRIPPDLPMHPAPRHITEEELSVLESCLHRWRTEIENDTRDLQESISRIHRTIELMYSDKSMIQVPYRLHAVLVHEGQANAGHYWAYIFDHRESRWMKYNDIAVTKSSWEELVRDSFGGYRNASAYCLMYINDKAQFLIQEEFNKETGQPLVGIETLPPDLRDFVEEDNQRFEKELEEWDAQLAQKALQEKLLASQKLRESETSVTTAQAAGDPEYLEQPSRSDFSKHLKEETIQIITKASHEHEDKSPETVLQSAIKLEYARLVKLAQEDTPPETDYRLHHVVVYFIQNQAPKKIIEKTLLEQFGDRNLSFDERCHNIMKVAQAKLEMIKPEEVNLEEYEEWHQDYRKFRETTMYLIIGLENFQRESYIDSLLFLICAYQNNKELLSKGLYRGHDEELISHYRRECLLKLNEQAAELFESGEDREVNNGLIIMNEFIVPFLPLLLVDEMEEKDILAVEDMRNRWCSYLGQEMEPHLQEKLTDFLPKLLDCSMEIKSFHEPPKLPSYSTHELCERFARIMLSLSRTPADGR
The assay is described as follows: Ubiquitin-Rhodamine 110 Assay for USP25 Activity, Example A-3. The class given is biochemical. The following applies: Ubiquitin-Rhodamine 110 assay, Example A-3; IC50 ranges; read-out: USP25 A-3 IC50. The method, then:
Example A-3: Biochemical Assay: Ubiquitin-Rhodamine 110 Assay for USP25 Activity
The assay was performed in a final volume of 9 μL in assay buffer containing 20 mM Tris-HCl (pH 8.0, (1M Tris-HCl, pH 8.0 solution; Corning 46-031-CM)), 3 mM BME (2-Mercaptoethanol; Sigma 63689-25ML-F), 0.03% BGG (0.22 μM filtered, Sigma, G7516-25G), and 0.01% Triton X-100 (Sigma, T9284-10L). Nanoliter quantities of 10-point, 3-fold serial dilution in DMSO was pre-dispensed into 1536 assay plates (Corning, #3724BC) for a final test concentration of 25 μM to 1.3 nM, top to lowest dose, respectively. Enzyme USP25, construct USP25-His6, (Boston Biochem E-546). Concentration and incubation times were optimized for the maximal signal-to-background while maintaining initial velocity conditions at a fixed substrate concentration. The final concentration of the enzyme in the assay was […]. Final substrate (Ub-Rh110; Ubiquitin-Rhodamine 110, R&D Systems #U-555) concentration was 25 nM with [Ub-Rh110]<<Km. 3 μL of 2× enzyme was added to assay plates (pre-stamped with compound) preincubated with […] for 30 minutes and then 3 μL of 2× Ub-Rh110 was added to assay plates. Plates were incubated for 45 minutes at room temperature before addition of 3 μL of stop solution (final concentration of 10 mM citric acid (Sigma, 251275-500G)). Fluorescence was read on the Envision (Excitation at 485 nm and Emission at 535 nm; Perkin Elmer) or on the PheraSTAR (Excitation at 485 nm and Emission at 535 nm; BMG Labtech).
For assay formats Example A-1(a), A-1(b), and A-2, data were reported as percent inhibition compared with control wells based on the following equation: % inh=1−((FLU−AveLow)/(AveHigh−AveLow)) where FLU=measured Fluorescence, AveLow=average Fluorescence of no enzyme control (n=16), and AveHighh=average Fluorescence of DMSO control (n=16). IC50 values were determined by curve fitting of the standard 4 parameter logistic fitting algorithm included in the Activity Base software package: IDBS XE Designer Model 205. Data is fitted using the Levenburg Marquardt algorithm.
Regarding `Cc1ccc2c(N)c(C(=O)N[C@H]3COc4cc(N5CC[C@@H]6CCC(N)C[C@@H]65)ccc4C3)sc2n1` (stereo in doubt) [Example 234, N-[(3R)-7-[(3aS,6S,7aS)-6-amino-octahydro-1H-indol-1-yl]-3,4-dihydro-2H-1-benzopyran-3-yl]-3-amino-6-methylthieno[2,3-b]pyridine-2-carboxamide], the IC50 is 50 to 200 nM. The same measure, in the same setting: under `Cc1cc(C)c2c(N)c(C(=O)N[C@H]3COc4cc(N5CC6CCC(C5)N6)c(C#N)c(F)c4C3)sc2n1` [Example 241, 3-amino-N-[(3R)-6-cyano-7-{3,8-diazabicyclo[3.2.1]octan-3-yl}-5-fluoro-3,4-dihydro-2H-1-benzopyran-3-yl]-4,6-dimethylthieno[2,3-b]pyridine-2-carboxamide] stands 50 to 200 nM.

Staying with this assay, now noted: Ubiquitin-Rhodamine 110 assay, Example A-3; read-out: USP25 A-3 IC50 range.
Regarding `Cc1cnc2c(N)c(C(=O)N[C@H]3CCc4cc(N5CC(C(=O)O)C5)ccc4C3)sc2n1` [Example 6-4, (S)-1-(6-(7-amino-3-methylthieno[2,3-b]pyrazine-6-carboxamido)-5,6,7,8-tetrahydronaphthalen-2-yl)azetidine-3-carboxylic acid], the IC50 fell in the range of 200 to 2000 nM. Same read-out and setting: the result for `Cc1ccc2c(N)c(C(=O)N[C@@H]3COc4cc(N5C[C@@H]6CNC[C@H]6C5)ccc4C3)sc2n1` [Example 42, 3-amino-N-((S)-7-((3aS,6aS)-hexahydropyrrolo[3,4-c]pyrrol-2(1H)-yl)chroman-3-yl)-6-methylthieno[2,3-b]pyridine-2-carboxamide] reads 200 to 2000 nM. The same measure, in the same setting: the result for `Cc1ccc2c(N)c(C(=O)N[C@H]3COc4cc(N5CC6CCC(C5)N6)c(F)cc4C3)sc2n1` [Example 104, 3-amino-N-[(3R)-7-{3,8-diazabicyclo[3.2.1]octan-3-yl}-6-fluoro-3,4-dihydro-2H-1-benzopyran-3-yl]-6-methylthieno[2,3-b]pyridine-2-carboxamide] reads 50 to 200 nM; that for `COC[C@@H]1CN(c2ccc3c(n2)OC[C@H](NC(=O)c2sc4nc(C)cc(C)c4c2N)C3)C[C@@H]1N` [Example 348, 3-amino-N-[(3R)-7-[(3R,4R)-3-amino-4-(methoxymethyl)pyrrolidin-1-yl]-2H,3H,4H-pyrano[2,3-b]pyridin-3-yl]-4,6-dimethylthieno[2,3-b]pyridine-2-carboxamide], > 2000 nM. Still for that read-out and setting: under `Cc1ccc2c(N)c(C(=O)N[C@H]3CCc4nc(N5C[C@@H](N)[C@H](C(F)(F)F)C5)ccc4C3)sc2n1` [Example 364, 3-amino-N-[(6S)-2-[(3S,4R)-3-amino-4-(trifluoromethyl)pyrrolidin-1-yl]-5,6,7,8-tetrahydroquinolin-6-yl]-6-methylthieno[2,3-b]pyridine-2-carboxamide] stands > 2000 nM. For `Cc1ccc2c(N)c(C(=O)N[C@H]3CCc4nc(N5C[C@@H]6CCN[C@H](C5)C6(F)F)ccc4C3)sc2n1` [Example 367, 3-amino-N-[(6S)-2-[(1R,5S)-9,9-difluoro-2,7-diazabicyclo[3.3.1]nonan-7-yl]-5,6,7,8-tetrahydroquinolin-6-yl]-6-methylthieno[2,3-b]pyridine-2-carboxamide], the IC50 was 50 to 200 nM. Same read-out and setting: under `Cc1ccc2c(N)c(C(=O)N[C@H]3CCc4nc(N5C[C@H]6CCN[C@@H](C5)C6(F)F)ccc4C3)sc2n1` [Example 368, 3-amino-N-[(6S)-2-[(1S,5R)-9,9-difluoro-2,7-diazabicyclo[3.3.1]nonan-7-yl]-5,6,7,8-tetrahydroquinolin-6-yl]-6-methylthieno[2,3-b]pyridine-2-carboxamide] stands 50 to 200 nM; under `CCn1ccc2cc(C(=O)N[C@H]3CCc4nc(N5C[C@H](C(F)F)[C@@H](N)C5)ccc4C3)cnc21` [Example 370, N-[(6S)-2-[(3R,4S)-3-amino-4-(difluoromethyl)pyrrolidin-1-yl]-5,6,7,8-tetrahydroquinolin-6-yl]-1-ethyl-1H-pyrrolo[2,3-b]pyridine-5-carboxamide], 200 to 2000 nM. On the same count and under the same terms, the result for `CCn1ccc2cc(C(=O)N[C@H]3CCc4nc(N5C[C@@H](N)[C@H](C(F)F)C5)ccc4C3)cnc21` [Example 371, N-[(6S)-2-[(3S,4R)-3-amino-4-(difluoromethyl)pyrrolidin-1-yl]-5,6,7,8-tetrahydroquinolin-6-yl]-1-ethyl-1H-pyrrolo[2,3-b]pyridine-5-carboxamide] reads > 2000 nM. On the same count and under the same terms, the result for `CC(=O)N[C@@H]1CN(c2ccc3c(n2)CC[C@H](NC(=O)c2sc4nc(C)ccc4c2N)C3)C[C@H]1C(F)F` [Example 372, 3-amino-N-[(6S)-2-[(3R,4S)-3-(difluoromethyl)-4-acetamidopyrrolidin-1-yl]-5,6,7,8-tetrahydroquinolin-6-yl]-6-methylthieno[2,3-b]pyridine-2-carboxamide] reads > 2000 nM. Regarding `Cc1ccc2c(N)c(C(=O)N[C@H]3CCc4nc(N5CCN[C@H](C(F)F)C5)ccc4C3)sc2n1` [Example 374, 3-amino-N-[(6S)-2-[(3S)-3-(difluoromethyl)piperazin-1-yl]-5,6,7,8-tetrahydroquinolin-6-yl]-6-methylthieno[2,3-b]pyridine-2-carboxamide], the IC50 was > 2000 nM. The same measure, in the same setting: the result for `Cc1ccc2c(N)c(C(=O)N[C@H]3CCc4nc(N5CCN[C@@H](C(F)F)C5)ccc4C3)sc2n1` [Example 375, 3-amino-N-[(6S)-2-[(3R)-3-(difluoromethyl)piperazin-1-yl]-5,6,7,8-tetrahydroquinolin-6-yl]-6-methylthieno[2,3-b]pyridine-2-carboxamide] reads > 2000 nM.

On to `CN[C@H]1CN(c2ccc3c(n2)CC[C@H](NC(=O)c2sc4nc(C)ccc4c2N)C3)C[C@@H]1C(F)F` [Example 376, 3-amino-N-[(6S)-2-[(3S,4R)-3-(difluoromethyl)-4-(methylamino)pyrrolidin-1-yl]-5,6,7,8-tetrahydroquinolin-6-yl]-6-methylthieno[2,3-b]pyridine-2-carboxamide], for which the IC50 was > 2000 nM. In the case of `CN[C@@H]1CN(c2ccc3c(n2)CC[C@H](NC(=O)c2sc4nc(C)ccc4c2N)C3)C[C@H]1C(F)F` [Example 377, 3-amino-N-[(6S)-2-[(3R,4S)-3-(difluoromethyl)-4-(methylamino)pyrrolidin-1-yl]-5,6,7,8-tetrahydroquinolin-6-yl]-6-methylthieno[2,3-b]pyridine-2-carboxamide], the IC50 is > 2000 nM.

Consider `Cc1ccc2c(N)c(C(=O)N[C@H]3CCc4nc(N5C[C@H](C(F)F)[C@@H](N)C5)ncc4C3)sc2n1` [Example 380, 3-amino-N-[(6S)-2-[(3R,4S)-3-amino-4-(difluoromethyl)pyrrolidin-1-yl]-5,6,7,8-tetrahydroquinazolin-6-yl]-6-methylthieno[2,3-b]pyridine-2-carboxamide], for which the IC50 was > 2000 nM.

The same assay, now with this note: biochemical IC50 range, Ubiquitin-Rhodamine 110 assay, Example A-3; read-out: USP25 A-3.
Consider `Cc1ccc2c(N)c(C(=O)N[C@H]3COc4cc(N5CCNCC5)cc(F)c4C3)oc2n1` [Example 169, 3-amino-N-[(3R)-5-fluoro-7-(piperazin-1-yl)-3,4-dihydro-2H-1-benzopyran-3-yl]-6-methylfuro[2,3-b]pyridine-2-carboxamide], for which the IC50 was > 2000 nM.
